The text below walks through data of article PMC8389922, “First-in-Class Cyclic Temporin L Analogue: Design, Synthesis, and Antimicrobial Assessment” (Journal of Medicinal Chemistry, 2021).

Converted amounts (≈) assume the structure as drawn. Square brackets hold non-standard residues; d marks the D form. Peptide text beside a SMILES is read from it.

Data set [1] deals with FtsZ protein. The following applies: E. coli divisome; cited from earlier work. An excerpt:
Temporins are AMPs and belong to the group of host defense peptides (HDP), originally isolated from the amphibian skin secretions of the […] Rana temporaria.[29] Their sequences are composed of 10–14 amino acids, amidated at the C-terminus. In hydrophobic environments, temporins fold into an amphipathic α-helix that, along with their cationic nature at physiological pH (from +2 to +3), is accountable for their biological behavior.

Data set [2] relates to B. megaterium Bm11. It is filed as cell-based, Bacillus megaterium. As for the experimental part: (§1) The antimicrobial activity of peptides 9–26 was assessed against a range of reference bacterial strains such as S. aureus ATCC 25923, Staphylococcus epidermidis ATCC 12228, Bacillus megaterium Bm11, E. coli ATCC 25922, P. aeruginosa ATCC 27853, and A. baumannii ATCC 19606 by the broth microdilution assay to determine the minimal growth inhibitory concentration (MIC, Table 1).[59] First, we evaluated the effects produced by the lactam bridge between Lys and Glu residues placed at different positions along the peptide sequence of reference 9. […] When the i,i+7 cyclization strategy was applied (20–23), a dramatic decrease of bacterial inhibition activity was observed. Specifically, the peptides 20, 22, and 23 only affected the microbial growth of the Gram-positive B. megaterium Bm11, at 12.5 μM. […] Peptide 25, which differs from 9 by the presence of an olefin bridge rather than lactam one, dramatically lost the activity (MIC > 100 μM) vs both Gram-positive and Gram-negative strains.
(§2) The determination of MICs was conducted as previously reported.[61] Aliquots of 50 μL of bacterial culture appropriately diluted were added to each well of a 96-well plate to reach a final cell density of 1 × 10^6 CFU/mL and a final peptide concentration ranging from 100 to 0.78 μM (final volume 100 μL).

Data set [3] can be described thus: in vitro. The following applies: male, human, 90% fresh human serum.
Experimental: (§5) Peptides were incubated with 90% fresh human serum at 37 ± 1 °C within 12 h.[69] The percentage of intact peptide was monitored by calculating the peak area of the chromatogram from RP-HPLC analysis.
(§6) The peptide was incubated in a 1.5 mL eppendorf tube with human serum at a final concentration of 0.2 mM, and the mixture was incubated at 37 ± 1 °C for different periods (0.25, 0.75, 1.5, 2, 3, 4, 6, 7, 8, and 12 h). After the incubation period, an aliquot of reaction solution was taken and added MeCN (double volume respect to the aliquot) for the precipitation of serum proteins present in human serum. The produced cloudy solution was cooled (4 °C) for 15 min and then centrifuged at 13 000 rpm for 10 min to remove the serum protein as pellet. Then, the supernatant was analyzed by RP-UHPLC using a linear elution gradient from 10 to 90% MeCN (0.1% TFA) in water (0.1% TFA) over 20 min. A flow rate of 1 mL/min was employed, and the absorbance of the eluting peaks was detected at 220 nm. The proteolytic stability assay was repeated in triplicate.
The subject of data set [4] is E. coli ATCC 25922. It is filed as cell-based, Escherichia coli. The protocol: as §1, §2
Data set [5] relates to S. epidermidis ATCC 12228. It is filed as cell-based, Staphylococcus epidermidis. The protocol: as §1, §2
The subject of data set [6] is preformed biofilm of A. baumannii ATCC 19606. The following applies: ATCC 19606, 20 h. As for the experimental part: (§3) Biofilm viability was determined as indicated in the Materials and General Procedures section and expressed as a percentage compared to that of untreated samples (100%). Values are the mean of at least three replicates ± SEM. Data are considered to be statistically significant as follows: *p < 0.05; ***p < 0.001; ****p < 0.0001. Biofilm eradication concentration 90, BEC90, was defined as the concentration able to reduce at least 90% of biofilm cells. TEXT PRINTED IN THE PICTURE: 9: S. aureus ATCC 25923: BEC90 = 25 μM; A. baumannii ATCC 19606: BEC90 > 100 μM | 12: S. aureus ATCC 25923: BEC90 = 12.5 μM; A. baumannii ATCC 19606: BEC90 = 25 μM
(§4) Preformed biofilms of S. aureus ATCC 25923 and A. baumannii ATCC 19606 were obtained as previously reported.[77] Microbial cultures were grown in Luria-Bertani broth (LB) at 37 °C to an optical density (OD) of 0.8 (λ = 590 nm) and then diluted in LB to a cell density of 1 × 10^6 colony-forming units (CFUs)/mL. Aliquots of 100 μL were dispensed into the wells of a 96-well plate, which was incubated for 20 h at 37 °C to allow biofilm formation. The medium containing planktonic cells was then aspirated from the wells and washed twice with 150 μL of phosphate-buffered saline (PBS) to remove any nonadherent cells. […] After treatment, each well was rinsed twice with PBS, as previously described. Then, 150 μL of MTT solution (0.5 mg/mL) were added to each well to evaluate biofilm cell viability. The plates were incubated at 37 °C for 4 h in the dark, and the reaction was stopped by adding sodium dodecyl sulfate (SDS) (at a final concentration of 5% v/v). The absorbance of each well was recorded at 570 nm using a microplate reader (Infinite M200; Tecan, Salzburg, Austria), and the percentage of biofilm cells viability was calculated with respect to the untreated samples (100%).

Data set [7] deals with preformed biofilm of S. aureus ATCC 25923. The following applies: ATCC 25923, 20 h. As for the experimental part:
as §3, §4

Data set [8] concerns A. baumannii ATCC 19606. It counts as cell-based, Acinetobacter baumannii. As for the experimental part: as §1, §2
The conditions of data set [9]: 90% fresh human serum (male AB plasma), 37 ± 1 °C, peptide 0.2 mM, MeCN precipitation, RP-UHPLC peak area at 220 nm, triplicate.
Experimental: as §5, §6
The test system of data set [10] is S. aureus ATCC 43300, a methicillin-resistant strain (MRSA). It counts as cell-based, Staphylococcus aureus. The protocol:
Thus, 12 was further tested against S. aureus ATCC 43300, a methicillin-resistant strain (MRSA), and compared with the linear precursor 9. […] No growth was observed after 24 h. Peptide 9 was bactericidal as well, by killing MRSA within 10 min, but at a higher concentration (25 μM).
The bacterial strains used in the antimicrobial assays were the Gram-negative E. coli ATCC 25922, P. aeruginosa ATCC 27853, A. baumannii ATCC 19606, the Gram-positive S. aureus ATCC 25923, S. epidermidis ATCC 12228, and B. megaterium Bm11. Methicillin-resistant S. aureus (MRSA) ATCC 43300 was obtained from Culture Collection Center of School of Basic Medical Sciences of Lanzhou University (China).
as §2

For data set [11], the system named is P. aeruginosa ATCC 27853. It is filed as cell-based, Pseudomonas aeruginosa. The protocol: as §1, §2
Data set [12] has as its system S. aureus ATCC 25923. It is filed as cell-based, Staphylococcus aureus. As for the experimental part:
as §1, §2

A short description of data set [13]: circular dichroism. The following applies: water; pH ns; 25 °C; 50 uM. Background: CD spectra are sensitive to the conformation of chiral molecules.

The term Kd denotes the equilibrium constant for the complex coming apart. As to FVQWFSKFLGRIL [compound 7, Temporin L], in data set [1], the Kd is 17.4 ± 0.8 nM.

As for `CC[C@H](C)[C@H](NC(=O)[C@H](CCCNC(=N)N)NC(=O)CNC(=O)[C@@H](CC(C)C)NC(=O)[C@H](Cc1ccccc1)NC(=O)[C@H](CCCCN)NC(=O)[C@H](CO)NC(=O)[C@H](Cc1ccccc1)NC(=O)[C@H](Cc1c[nH]c2ccccc12)NC(=O)[C@@H]1CCCN1C(=O)[C@@H](NC(=O)[C@@H](N)Cc1ccccc1)C(C)C)C(=O)N[C@@H](CC(C)C)C(N)=O` [compound 9, [Pro^3,DLeu^9]TL, reference compound] (H-FVPWFSKF[dL]GRIL-NH2), the “MIC B. megaterium Bm11” value in data set [2] is 1.56 µM (≈ 2.51 µg/mL). In addition, the metabolised at 0.75 h, 0.2 mM in [3] is roughly 40%. Besides, the “MIC E. coli ATCC 25922” value in data set [4] is 12.5 µM (≈ 20.1 µg/mL). Further, the “MIC S. epidermidis ATCC 12228” value in [5] was determined as 6.25 µM (≈ 10.1 µg/mL). In addition, the “Biofilm Eradication Concentration 90 (BEC90) A. baumannii ATCC 19606” value in [6] was greater than 100 µM. Besides, the “Biofilm Eradication Concentration 90 (BEC90) S. aureus ATCC 25923” value in [7] was determined as 25 µM. Moreover, the “MIC A. baumannii ATCC 19606” value in data set [8] was found to be 6.25 µM (≈ 10.1 µg/mL). In addition, in data set [9], the “time to complete degradation in human serum” value was no more than 6 h. Further, in data set [10], the “MIC S. aureus ATCC 43300 (MRSA)” value was determined as 25 µM (≈ 40.2 µg/mL). Further, the “MIC P. aeruginosa ATCC 27853” value in data set [11] worked out at 50 µM (≈ 80.5 µg/mL). Besides, in [12], the “MIC S. aureus ATCC 25923” value is 6.25 µM (≈ 10.1 µg/mL). Besides, the helicity in data set [13] is 3%.
